Data set [1] relates to Escherichia coli (gram-negative). The data set can be described thus: Quantitative antibacterial activity test of treated materials (OECD / ISO 22197/20743), Gram −. The format is cell-based.
Data set [2] concerns Staphylococcus aureus (gram-positive). The data set can be described thus: Quantitative antibacterial activity test of treated materials (OECD / ISO 22197/20743), Gram +. It counts as cell-based, S. aureus ATCC6538P.
For data set [3], the system named is MS2. The data set can be described thus: MS2 test after accelerated ageing (ASTM F1980-16), Example 4. The format is cell-based. The source says: Same filter media 2.2 as in example 3 was used. The filter media was placed with the outer backing layer on a support platform and the outer wave layer exposed to the coating precursor-comprising plasma discharge (or the plasma source) during the atmospheric pressure plasma coating process.
Two different precursors were used: an aqueous solution comprising 50% by weight of citric acid (CAS 77-92-9), and an aqueous solution comprising 25% by weight n-alkyl(C12-16)-n,n-dimethyl-n-benzylammonium chloride (BTC50E; CAS 68424-85-1) (1:1 w/w dilution in water).
Filter media samples were coated with each coating by passing 3 or 6 times through the plasma discharge area. The virucidal performance was tested by the MS2 test as explained above. An accelerated ageing test was performed according to ASTM F1980-16. […] An ageing test of 3 days at 55° C. and 75% RH represents 1 month in real life conditions. The results of the virucidal performance after ageing gives an idea of the durability of the coating over time.

Data set [4] can be described thus: pH test (change in pH value before and after coating, penetration depth). It counts as physicochemical. The settings on record: Outer wave sample. How it is done: The penetration depth was measured by measuring the change in pH value before and after coating on samples of the outer wave layer 51. […] Presence of citric acid was also detected in the intermediate layer 52.

For data set [5], the system named is Phi-6 bacteriophage. The data set can be described thus: Phi-6 virucidal test (modified ISO 10705-1:1995). The format is cell-based. Conditions: 20 wt% citric acid precursor, Outer wave sample, 2-hour contact.
Data set [6] relates to MS2 virus. The data set can be described thus: Virucidal testing with MS2 droplets on coated filter media 2.2 (Example 3). It counts as cell-based. Conditions: 2 hours incubation. As to the method: Filter media 2.2 were coated according to the process parameters of Table 9 using the same PlasmaLine® equipment. For each coating process, 2 samples were coated with the outer waved layer exposed to the plasma source, and 2 samples were coated with the outer backing layer surface exposed.
Two precursors were used: an aqueous solution comprising 40% by weight of citric acid, and a solution of 15% by weight of chlorocresol in ethanol.
The anti-viral properties were tested by application of a fixed number of water droplets containing the MS2 virus on the surface of the samples. The droplets were applied to the surface that was exposed to the plasma source during the atmospheric pressure plasma coating process. After an incubation of 2 hours, the samples were immerged in a recuperation solution to extract the virus from the samples. The recuperation solution was placed in a petri dish wherein the E. coli bacteria grew, and the number of viral zones (zones comprising death bacteria) are counted. A lower number of viral zones indicates a larger neutralisation of the virus by the plasma coating.
The Virucide result (log value) gives the log value of the number of living viruses found in the recuperation solution.

Setting [7] is: 3 passes, 0 days oven (0 months real life).
[8] abbreviates: 3 passes, 9 days oven (3 months real life).
Setting [9] is: 3 passes, 19 days oven (6 months real life).
[10] abbreviates: 3 passes, 27 days oven (9 months real life).
Where [11] appears, read: 3 passes, 36 days oven (12 months real life).
[12] abbreviates: 6 passes, 0 days oven (0 months real life).
[13] abbreviates: 6 passes, 6 days oven 55° C. 75% RH (2 months real life).
[14] abbreviates: 6 passes, 9 days oven (3 months real life).
[15] abbreviates: 6 passes, 19 days oven (6 months real life).
[16] abbreviates: 6 passes, 27 days oven (9 months real life).
[17] abbreviates: 6 passes, 36 days oven (12 months real life).
Where [18] appears, read: exposed side Backing layer, 5 passes.
[19] abbreviates: exposed side Backing layer, 10 passes.
Where [20] appears, read: exposed side Backing layer, 20 passes.
Where [21] appears, read: exposed side waved layer, 5 passes.
The mark [22] stands for this setting: exposed side waved layer, 10 passes.
Setting [23] is: exposed side waved layer, 20 passes.
Where [24] appears, read: 3 passes, 3 days oven 55° C. 75% RH (1 month real life).
[25] abbreviates: 3 passes, 6 days oven 55° C. 75% RH (2 months real life).
[26] abbreviates: 6 passes, 3 days oven 55° C. 75% RH (1 month real life).

For the compound “Benzalkonium chloride [reference compound]”, in data set [1] (PPNW substrate 25 g/m^2), the “% Gram − bacteria reduced” value was 99.9996% and the “Gram − log reduction” value is given as 5.4 log. Also, in data set [1] (Tyvek substrate), the “% Gram − bacteria reduced” value is given as 98.7% and the “Gram − log reduction” value stood at 1.9 log. Moreover, in data set [2] (PPNW substrate 25 g/m^2), the “% Gram + bacteria reduced” value is listed as more than 99.994% and the “Gram + log reduction” value is listed as more than 4.2 log. For the same compound, in data set [2] (Tyvek substrate), the “% Gram + bacteria reduced” value is on record as more than 99.5% and the “Gram + log reduction” value is recorded as more than 3.3 log.
“PVP-12 Poly(vinylpyrrolidone)- Iodine complex [PVP-I2, reference compound]”: in data set [1] (PPNW substrate 25 g/m^2), the “% Gram − bacteria reduced” value is more than 99.9996% and the “Gram − log reduction” value is listed as more than 5.4 log. Besides, in data set [2] (PPNW substrate 25 g/m^2), the “% Gram + bacteria reduced” value is on record as more than 99.994% and the “Gram + log reduction” value is on record as more than 4.2 log.
For `CCCCCCCCCCCCCCCCCC[N+](C)(C)CCC[Si](OC)(OC)OC.[Cl-]` [SiQAM, Dimethyloctadecyl[3-(trimethoxysilyl)propyl] ammonium chloride], in data set [1] (PPNW substrate 25 g/m^2), the “% Gram − bacteria reduced” value was more than 99.9996% and the “Gram − log reduction” value is more than 5.4 log. In addition, in data set [1] (Tyvek substrate), the “% Gram − bacteria reduced” value is given as more than 98.7% and the “Gram − log reduction” value is given as more than 1.9 log. Also, in data set [2] (PPNW substrate 25 g/m^2), the “% Gram + bacteria reduced” value is recorded as more than 99.994% and the “Gram + log reduction” value is reported as more than 4.2 log. Besides, in data set [2] (Tyvek substrate), the “% Gram + bacteria reduced” value is given as more than 99.95% and the “Gram + log reduction” value is more than 3.3 log.
Citric Acid: the “Virus neutralized (%)” value in data set [3] (setting [7]) turned out to be 99.86%; in data set [3] (setting [8]), 97.76%; in data set [3] (setting [9]) it was 97.38%; in data set [3] (setting [10]) it was 99.00%; in data set [3] (setting [11]), 97.91%; in data set [3] (setting [12]), 99.78%. In addition, the “Virus neutralized (%)” value in data set [3] (setting [13]) turned out to be 98.09%; in data set [3] (setting [14]), 96.45%; in data set [3] (setting [15]), 95.91%; in data set [3] (setting [16]) it was 97.61%; in data set [3] (setting [17]), 93.97%; in data set [6] (setting [18]), 93.7%. The “Virus neutralized (%)” value in data set [6] (setting [19]) is 96.0%; in data set [6] (setting [20]), 99.8%; in data set [6] (setting [21]), 80.0%; in data set [6] (setting [22]) it was 93.7%; in data set [6] (setting [23]), 98.7%. Further, the “Viruside results (log red)” value stood at 2.86 log red in data set [3] (setting [7]); 2.65 log red in data set [3] (setting [12]); 1.72 log red in data set [3] (setting [13]); 1.2 log red in data set [6] (setting [18]); 1.4 log red in data set [6] (setting [19]); 2.7 log red in data set [6] (setting [20]). For the same compound, the “Viruside results (log red)” value is on record as 0.7 log red in data set [6] (setting [21]), 1.2 log red in data set [6] (setting [22]) and 1.9 log red in data set [6] (setting [23]). The “% Gram − bacteria reduced” value was more than 99.999% in data set [1] (PPNW substrate 25 g/m^2) and 97.5% in data set [1] (Tyvek substrate). Besides, the “Gram − log reduction” value in data set [1] (PPNW substrate 25 g/m^2) was more than 5.0 log; in data set [1] (Tyvek substrate), 1.6 log. The figures for the pH test in data set [4] (6 passes), in data set [4] (10 passes) and in data set [4] (20 passes) were 1.66, 1.72 and 1.78, respectively. The “Avg. Phi-6 (log red)” value in data set [5] (6 passes), in data set [5] (10 passes) and in data set [5] (20 passes) was more than 2.2 log red each time. Further, the “Phi-6 neutralized (%)” value in data set [5] (6 passes), in data set [5] (10 passes) and in data set [5] (20 passes) was more than 99.37% throughout. The entries for the “% Gram + bacteria reduced” value in data set [2] (PPNW substrate 25 g/m^2) and in data set [2] (Tyvek substrate) were more than 99.995% and more than 99.98%, respectively. The entries for the “Gram + log reduction” value in data set [2] (PPNW substrate 25 g/m^2) and in data set [2] (Tyvek substrate) were more than 4.3 log and more than 3.8 log, respectively.
Consider `Cc1cc(O)ccc1Cl` [Chlorocresol, reference compound], for which the “Virus neutralized (%)” value in data set [6] (setting [18]) is listed as 68.4%; in data set [6] (setting [19]), 98.0%; in data set [6] (setting [21]), 36.9%; in data set [6] (setting [22]) it was 74.9%; in data set [6] (setting [23]), 84.2%. In addition, the “Viruside results (log red)” value is listed as 0.5 log red in data set [6] (setting [18]); 1.7 log red in data set [6] (setting [19]); 0.2 log red in data set [6] (setting [21]); 0.6 log red in data set [6] (setting [22]); 0.8 log red in data set [6] (setting [23]).
As to `C=C(C)C(=O)OCCN(C)C` [DIMAEMA, 2-(Dimethylamino) ethyl methacrylate], in data set [1] (PPNW substrate 25 g/m^2), the “% Gram − bacteria reduced” value is more than 99.9996% and the “Gram − log reduction” value is given as more than 5.4 log. Moreover, in data set [1] (Tyvek substrate), the “% Gram − bacteria reduced” value worked out at 20.6% and the “Gram − log reduction” value stood at 0.1 log. In data set [2] (PPNW substrate 25 g/m^2), the “% Gram + bacteria reduced” value is reported as more than 99.994% and the “Gram + log reduction” value is more than 4.2 log. Moreover, in data set [2] (Tyvek substrate), the “% Gram + bacteria reduced” value was more than 99.95% and the “Gram + log reduction” value is reported as more than 3.3 log.
Consider “n-alkyl(C12-16)-n,n-dimethyl-n-benzylammonium chloride [BTC50E]”, for which the “Virus neutralized (%)” value was determined as 99.57% in data set [3] (setting [7]); 99.96% in data set [3] (setting [24]); 99.74% in data set [3] (setting [25]); 99.35% in data set [3] (setting [8]); 99.86% in data set [3] (setting [9]); 99.89% in data set [3] (setting [10]). Further, the “Virus neutralized (%)” value in data set [3] (setting [11]) stood at 99.98%; in data set [3] (setting [12]) it was 99.83%; in data set [3] (setting [26]), 99.82%; in data set [3] (setting [13]) it was 99.83%; in data set [3] (setting [14]), 98.88%; in data set [3] (setting [15]), 99.83%. Besides, the “Virus neutralized (%)” value in data set [3] (setting [16]) was found to be 99.70%; in data set [3] (setting [17]), 98.59%. Besides, the “Viruside results (log red)” value in data set [3] (setting [7]) is on record as 2.37 log red; in data set [3] (setting [24]), 3.38 log red; in data set [3] (setting [25]), 2.59 log red; in data set [3] (setting [12]), 2.78 log red; in data set [3] (setting [26]) it was 2.75 log red; in data set [3] (setting [13]), 2.78 log red.
